These results are taken from ChEMBL document CHEMBL5338792, “Degradation of Rat Sarcoma Proteins Targeting the Post-Translational Prenyl Modifications via Cascade Azidation/Fluorination and Click Reaction” (J Med Chem, 2023).

In test [1] the test system is A549. The test is described as follows: SarcPROTAC activity at VHL/RAS in TMSN3/Selectfluor-treated human A549 cells at 50 uM in presence of CuBr/TBTA incubated for 24 hrs by Western blot analysis. Format: cell-based. A general note: Immunoblotting shows a protein as a band on a membrane.
In test [2] the test system is HeLa. The test is described as follows: SarcPROTAC activity at VHL/RAS in TMSN3/Selectfluor-treated human HeLa cells at 50 uM in presence of CuBr/TBTA incubated for 24 hrs by Western blot analysis. In kind it is cell-based.
The target of test [3] is T1, Protein cereblon/GTPase HRas/GTPase NRas/GTPase KRas (Homo sapiens) (UniProt P01112+P01111+P01116+Q96SW2). The test is described as follows: SacrPROTAC activity at E3 ubiquitin ligase/RAS in TMSN3/Selectfluor-treated human HeLa cells assessed as induction of RAS degradation at 200 uM measured after 24 hrs in presence of propargyl pomalidomide by Western blot analysis. In kind it is cell-based.
T1 sequence (P01111 whole entry, looked up): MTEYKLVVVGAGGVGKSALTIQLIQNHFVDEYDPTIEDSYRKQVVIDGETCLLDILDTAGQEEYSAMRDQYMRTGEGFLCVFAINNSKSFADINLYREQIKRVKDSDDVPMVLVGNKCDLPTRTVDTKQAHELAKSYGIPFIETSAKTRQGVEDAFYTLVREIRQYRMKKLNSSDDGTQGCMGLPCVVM
T1 sequence (P01112 whole entry, looked up): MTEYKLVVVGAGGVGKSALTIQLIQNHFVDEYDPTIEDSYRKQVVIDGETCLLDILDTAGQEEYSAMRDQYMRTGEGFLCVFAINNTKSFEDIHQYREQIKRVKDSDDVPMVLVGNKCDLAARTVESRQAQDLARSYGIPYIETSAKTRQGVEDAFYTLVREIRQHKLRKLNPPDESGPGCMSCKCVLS
T1 sequence (P01116 whole entry, looked up): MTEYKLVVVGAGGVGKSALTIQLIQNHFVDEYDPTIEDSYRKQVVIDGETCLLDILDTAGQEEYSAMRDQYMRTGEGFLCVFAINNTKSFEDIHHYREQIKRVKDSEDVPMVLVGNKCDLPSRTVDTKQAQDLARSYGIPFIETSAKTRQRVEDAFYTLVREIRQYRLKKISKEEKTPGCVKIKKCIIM
T1 sequence (Q96SW2 whole entry, looked up): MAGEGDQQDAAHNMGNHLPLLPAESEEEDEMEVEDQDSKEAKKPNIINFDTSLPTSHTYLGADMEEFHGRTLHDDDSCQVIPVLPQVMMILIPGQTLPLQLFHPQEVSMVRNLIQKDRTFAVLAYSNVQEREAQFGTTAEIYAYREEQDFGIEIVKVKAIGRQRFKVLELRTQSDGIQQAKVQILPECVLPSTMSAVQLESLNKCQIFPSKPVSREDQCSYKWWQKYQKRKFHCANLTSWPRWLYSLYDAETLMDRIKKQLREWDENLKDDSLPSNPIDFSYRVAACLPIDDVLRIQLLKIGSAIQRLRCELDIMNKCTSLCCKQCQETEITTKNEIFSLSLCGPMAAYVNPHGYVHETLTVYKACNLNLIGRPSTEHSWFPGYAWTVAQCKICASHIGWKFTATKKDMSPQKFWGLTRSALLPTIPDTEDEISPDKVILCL

The test system of test [4] is HT-29. Briefly: Inhibition of […] in TMSN3/Selectfluor-treated human HT-29 cells upto 200 uM in presence of CuBr/TBTA by CCK8 assay. Format: functional, cell-based. For orientation: Tetrazolium assays rely on reduction of a dye to a coloured formazan, in cell work by metabolically active cells.
The test system of test [5] is HT-29. Briefly: SacrPROTAC activity at E3 ubiquitin ligase/RAS in TMSN3/Selectfluor-treated human HT-29 cells assessed as induction of RAS degradation at 100 to 200 uM measured for 12 to 24 hrs by Western blot analysis. To be noted: dose 100-200 µM, time 12-24 hrs. Format: functional, cell-based.
Test [6] concerns HeLa. Briefly: Downregulation of HRAS in TMSN3/Selectfluor-treated human HeLa cells at 50 to 200 uM incubated for 24 hrs in presence of CuBr/TBTA by TMT mass spectrometric analysis. Format: functional, cell-based. To be noted: dose 50-200 µM.
Test [7] relates to MCF7. The test is described as follows: SacrPROTAC activity at E3 ubiquitin ligase/RAS in TMSN3/Selectfluor-treated human MCF7 cells assessed as induction of RAS degradation at 200 uM measured after 24 hrs by Western blot analysis. Format: functional, cell-based.
In test [8] the test system is MCF7. The test is described as follows: SacrPROTAC activity at E3 ubiquitin ligase/RAS in TMSN3/Selectfluor-treated human MCF7 cells assessed as induction of RAS degradation at 200 uM measured upto 48 hrs by Western blot analysis. In kind it is functional, cell-based.
The target in test [9] is T1, Protein cereblon/GTPase HRas/GTPase NRas/GTPase KRas (Homo sapiens). Briefly: SacrPROTAC activity at E3 ubiquitin ligase/RAS in TMSN3/Selectfluor-treated human HeLa cells assessed as induction of RAS degradation at 75 uM incubated for >48 hrs by Western blot analysis. Format: cell-based.
For test [10], the system named is HeLa. Briefly: Upregulation of GSTP1 in TMSN3/Selectfluor-treated human HeLa cells at 50 to 200 uM incubated for 24 hrs in presence of CuBr/TBTA by TMT mass spectrometric analysis. In kind it is functional, cell-based. To be noted: dose 50-200 µM.
For test [11], the target named is T1, Protein cereblon/GTPase HRas/GTPase NRas/GTPase KRas (Homo sapiens). The test is described as follows: SacrPROTAC activity at E3 ubiquitin ligase/RAS in TMSN3/Selectfluor-treated human HeLa cells assessed as induction of RAS degradation at 200 uM measured after 24 hrs by Western blot analysis. Format: cell-based.
The target is the same in test [12]. Briefly: SacrPROTAC activity at E3 ubiquitin ligase/RAS in TMSN3/Selectfluor-treated human HeLa cells assessed as induction of RAS degradation incubated for 24 hrs by Western blot analysis. In kind it is cell-based. To be noted: dose <= 200.0 µM.
Test [13] has as its system HeLa. Briefly: Induction of apoptosis in TMSN3/Selectfluor-treated human HeLa cells at 200 uM in presence of CuBr/TBTA incubated for 24 hrs by annexin V-FITC/PI staining based flow cytometry. In kind it is functional, cell-based. (A flow cytometer gives signals particle by particle.)
For test [14], the system named is A549. Briefly: SacrPROTAC activity at E3 ubiquitin ligase/RAS in TMSN3/Selectfluor-treated human A549 cells assessed as induction of RAS degradation at 200 uM measured for 48 hrs by Western blot analysis. Format: functional, cell-based.
The target in test [15] is T1, Protein cereblon/GTPase HRas/GTPase NRas/GTPase KRas (Homo sapiens). Briefly: SacrPROTAC activity at E3 ubiquitin ligase/RAS in TMSN3/Selectfluor-treated human HeLa cells assessed as induction of RAS degradation at 200 uM measured after 24 hrs in presence of PYR-41 by Western blot analysis. In kind it is cell-based.
Test [16] concerns HT-29. Briefly: SacrPROTAC activity at E3 ubiquitin ligase/RAS in TMSN3/Selectfluor-treated human HT-29 cells assessed as induction of RAS degradation at 100 to 200 uM measured after 24 hrs by Western blot analysis. In kind it is functional, cell-based. To be noted: dose 100-200 µM.
Test [17] deals with T1, Protein cereblon/GTPase HRas/GTPase NRas/GTPase KRas (Homo sapiens). Briefly: SacrPROTAC activity at E3 ubiquitin ligase/RAS in TMSN3/Selectfluor-treated human HeLa cells assessed as induction of RAS degradation at 200 uM measured after 24 hrs in presence of methyl propargyl pomalidomide by Western blot analysis. In kind it is cell-based.

The source made the active and inactive calls. No cut-off for these calls is given here.

For `C#CCCOC(=O)N[C@H](C(=O)N1C[C@H](O)C[C@H]1C(=O)NCc1ccc(-c2scnc2C)cc1)C(C)(C)C`, the result in the test on A549 [1] and in the test with HeLa [2] was Active.
With `C#CCNCC(=O)Nc1cccc2c1C(=O)N(C1CCC(=O)N(C)C1=O)C2=O` (configuration not stated), the outcome in [3] was inactive.
With `C#CCNCC(=O)Nc1cccc2c1C(=O)N(C1CCC(=O)NC1=O)C2=O` (configuration not stated), the inhibition result with HT-29 [4] was “Active”. Moreover, the outcome (in the test on HT-29 [5]; with HeLa [6]; with MCF7 [7]; in [9]; in the test on HeLa [10]; in test [11]) was Active. Moreover, the outcome (in the test with HeLa [13]; with A549 [14]; in the test on HT-29 [16]; in [17]) was Active. The result (in the test on MCF7 [8]; in test [15]) was inactive. Further, in test [12], the Activity entry was “Dose-Dependent Effect”.
